The record followed here is PMC7925099, “Identification of an Antiretroviral Small Molecule That Appears To Be a Host-Targeting Inhibitor of HIV-1 Assembly” (Journal of Virology, 2021).

The test system of series [1] is HIV-1 NL4-3 RLuc. The experiment in a line: MT-2 spreading infection assay (inhibition of HIV-1 replication). The settings on record: for EC50: Human immunodeficiency virus 1, NL43, T-cell, 96 h, read-out: EC50 for inhibition of HIV-1 replication; for SI (CC50/EC50): from average values.
Procedure: Inhibition of HIV-1 viral replication was assayed in a spreading infection using MT-2 cells and NL4-3 RLuc reporter virus. For dose-response curves, compounds were initially diluted with DMSO to 100-fold the starting concentration in a 96-well plate and subjected to a series of 3-fold dilutions in DMSO for a total of eight or nine dilutions. If a single compound concentration was tested, the compound was diluted to 100-fold the desired concentration in DMSO. Compounds were then diluted 50-fold with infection media prepared by diluting NL4-3 RLuc virus stock to 400 IU/100 μl with complete RPMI. Then, 100 μl of 50-fold-diluted compound was transferred to 20,000 MT-2 cells that were preseeded in 96-well plates in 100 μl of complete RPMI for a final volume of 200 μl, followed by incubation at 37°C for 96 h. The final MOI in infected plates was 0.02, and the final DMSO concentration in all wells was 1%. All assays were run with three replicates. For each replicate, one well received DMSO only, and one well received medium only for normalization and background correction. […] Plates were read on a luminescence plate reader (Synergy H1; BioTek Instruments, Inc.).
(§1) EC50 and CC50 values were determined in Excel using four-parameter logistic regression analysis of dose-response data generated from the viral inhibition or cytotoxicity assays, respectively. […] Average EC50 and CC50 values were calculated using the geometric mean and average values were reported with the geometric standard deviation (GSD).
Series [2] has as its system influenza A virus WSN/33 (H1N1) (FLUV). In kind it is cell-based.
Series [3] concerns HIV-1 (chronically infected H9 T cells, H9-HIV). In words: Inhibition of HIV-1 late events: infectious virus production by H9-HIV cells. In kind it is cell-based. The settings on record: Human immunodeficiency virus 1, 48 h, titered on TZM-bl cells, read-out: EC50INF (inhibition of infectivity of culture supernatant). As for the experimental part: For these experiments, we used H9-HIV, a chronically infected H9 T cell line. Compounds were diluted as described under MT-2 spreading infection above. […] To measure inhibition of virus production (Fig. 3B, blue graph and blot), PEG pelleted virus (harvested as described in “Virus pelleting” above) was analyzed by WB with αGag.

Series [4] has the same test system. The experiment in a line: Inhibition of HIV-1 late events: virus production (αGag WB of pelleted virus). Type of series: cell-based. The note with it: Human immunodeficiency virus 1, T-cell.
The nature of series [5]: in vitro. The note with it: human, CC50.
Procedure: (§2) For each viral inhibition assay, a cytotoxicity assay was performed in parallel on uninfected cells by adding 1/10 volume of alamarBlue (Thermo Fisher, Waltham, MA; DAL1199) to the plates, followed by thorough mixing. AlamarBlue-treated plates were incubated for 2 to 3 h at 37°C (the timing was optimized for the linear signal), mixed well, and read using a fluorescence plate reader with 560 nm and 590 nm as the excitation and emission settings, respectively (Synergy H1; BioTek Instruments, Inc.).
as §1
The test system of series [6] is MT-2 cells.
Procedure: as §2, §1
Series [7] deals with FIV 34TF10. The experiment in a line: FIV inhibition assay (spreading infection, RT activity). In kind it is cell-based, feline immunodeficiency virus. As for the experimental part: G355-5 cells were transfected in six-well plates, and each well was transfected with 2 μg per well of FIV 34TF10 ORFA+ proviral plasmid. At 24 h posttransfection, the cells were washed, and the medium was replaced with 4 ml of complete McCoy 5A. At 144 h posttransfection, the medium was filtered using a 0.45-μm syringe filter, aliquoted, and stored at −80°C. The reverse transcriptase (RT) activity in media from FIV or mock-transfected cells was estimated using SG-PERT ([94]). A set of recombinant RT standards (EMD Millipore, Molsheim, France; catalog no. 382129) ranging from 5.12E3 to 5.12E9 nU/ml was used to estimate the nU/ml of RT activity in the FIV stock.
Inhibition of FIV spreading infection was assayed using G355-5 cells, seeded on the prior day at 8,000 cells/well in a 96-well plate.

The nature of series [8]: in vitro. Type of series: cell-based. The settings on record: human.
Series [9] has as its system HIV-1 LAI pro– Δenv (pseudotyped with HIV-1 NL4-3 Env). In words: MT-2 acute infection assay (VLP, intracellular Gag, assembly intermediates). The note with it: MT-2 cells.
Procedure: For Fig. 3B, culture supernatants were collected at 48 h, and virus was pelleted by adding 75 μl of 17% PEG 6000–0.8 M NaCl–PBS to 75 μl of medium from the assay in a 96-well V-bottom polypropylene plate. PEG and media were incubated on ice for 2 h or overnight at 4°C. Virus was pelleted at 1,847 × g for 30 min at 4°C in the plate in an Allegra centrifuge (Beckman), and the pellet was resuspended in 50 μl of loading buffer with dithiothreitol for analysis by WB with αGag. For Fig. 4, culture supernatants were collected at 48 h postinfection and filtered through a 0.45-μm PES syringe filter to remove any remaining cells. Virus-like particles were centrifuged through a 30% (wt/vol) sucrose-PBS cushion at 130,000 × g, 30 min, and 4°C in an SW55Ti rotor (Beckman), and the virus pellet was harvested for analysis by WB with αGag.
MT-2 cells were diluted to 2 × 10^6 cells/ml with complete RPMI and bulk infected at an MOI of 1 for 2 h at 37°C. Compound was diluted 100-fold to the final required concentration with DMSO. The compound dilutions and DMSO-only controls were then further diluted 50-fold with complete RPMI, and 1 ml of the dilutions was added per well in a 12-well plate. Bulk-infected cells were then washed and adjusted to 0.5 × 10^6 cells/ml, and 1 ml of infected cells was added to each well containing diluted compound or DMSO. At 48 h, the medium was collected for virus pelleting as described above, and the cells were washed and lysed (see “Cell lysis” below).
MT-2 cells were collected and washed three times by pelleting at 200 × g for 5 min at 4°C in an Allegra centrifuge (Beckman) and resuspending cells in ice-cold PBS. Cell pellets were lysed with 250 μl lysis buffer (20 mM HEPES [pH 7.9], 14 mM potassium acetate, 1 mM MgCl2, 0.3% NP-40), followed by shearing 20× with a 20-gauge needle. Cell lysate was then clarified 200 × g for 10 min at 4°C in an Allegra centrifuge (Beckman). The supernatant was transferred to a fresh tube and further clarified by centrifugation at 18,000 × g for 10 min at 4°C in a Microfuge (Beckman), and the supernatant was transferred to a fresh tube.
To prepare gradients, 10, 15, 40, 50, 60, 70, and 80% (wt/vol) sucrose solutions were prepared with water, and then each was diluted 1/10 with a 10× stock of the lysis buffer used to harvest cells (see “Cell lysis”). For each gradient, ∼100 μl of cell lysate (∼100 μg of total protein) was layered on a 5-ml step gradient containing equivalent layers of each diluted sucrose solution prepared and subjected to velocity sedimentation in a Beckman MLS-50 rotor 217,000 × g for 45 min at 4°C. Gradients were fractionated from top to bottom, and pelleted material was harvested for WB. Aliquots of fractions and pellet were analyzed by SDS-PAGE, followed by WB with αGag.
Series [10] can be described thus: in vitro. The settings on record: cat.
Procedure: as §2, §1
Series [11] can be described thus: Cytotoxicity assay on SupT1.CCR5 cells. The note with it: human, SupT1.CCR5 cells (uninfected).
Procedure: as §2, §1
Series [12] relates to MT-2 cells. The experiment in a line: Cytotoxicity assay (alamarBlue) on uninfected MT-2 T cells. The settings on record: uninfected MT-2 cells.
Procedure: as §2, §1
The subject of series [13] is PBMCs. The note with it: human.
Procedure: as §2, §1
Series [14] deals with HIV-1 NL4-3. The experiment in a line: PBMC spreading infection assay. In kind it is cell-based. As for the experimental part:
Thawed, unstimulated PBMCs (BenTech, Seattle, WA) were pelleted by centrifugation 228 × g for 8 min in an Allegra centrifuge (Beckman, Brea, CA). Pellets were resuspended in activation medium containing RPMI supplemented with 21 ng/ml human interleukin-2 (IL-2; […] Remel, San Diego, CA; R30852801), 10% FBS, and 1% penicillin-streptomycin, at a density of 2 × 10^6 cells/ml. After a 3-day incubation, the cells were collected and resuspended in RPMI with 20% FBS and 10% DMSO and then frozen as 50 × 10^6 cells per vial. […] Compound dilutions were prepared in complete PBMC medium as described above, but without virus, and 100 μl of diluted compound was transferred to 96-well U-bottom plates. Bulk-infected cells were pelleted and resuspended in complete PBMC medium at 1 × 10^6 cells/ml, and 100 μl of cell suspension was transferred to each well at 100,000 cells per well with diluted compound. After 96 h, the medium was collected for relative infectivity measurements as for the SupT1.CCR5 spreading infection assay.

In series [15] the test system is HIV-1 NL4-3. In kind it is cell-based. The settings on record: MT-2 cells, 37 weeks of selection.

In the case of `COc1cc(C)c(/C=C/C2NCCc3cc(OCc4ccccc4)c(OC)cc32)cc1OCc1ccccc1` (stereo not drawn) [PAV-117], the EC50 was found to be 48 nM in series [1]; 104 nM in series [3]; 113 nM in series [4] (H9-HIV cells, 48 h, αGag WB, read-out: EC50VLP (inhibition of virus production, p24 Gag in virus pellets)); 595 nM in series [7] (Feline immunodeficiency virus, feline G355-5 cells, FIV 34TF10, 144 h, RT activity, read-out: EC50 for inhibition of FIV replication). The “SI (CC50/EC50)” value in series [1] (MT-2 cells) turned out to be 14. The “selectivity index (CC50/EC50)” value in [1] (MT-2 cells, from the shown dose-response curve) came out at 21. Further, the “activity against FLUV (infectious titer)” value in series [2] was “not active”. Moreover, the inhibition at 0.002 µM in series [4] (2 nM, H9-HIV, WB of virus pellets, read-out: % inhibition of virus production (relative to DMSO)) was determined as 2%. Besides, the inhibition at 0.005 µM in [4] (5 nM, H9-HIV, WB of virus pellets, read-out: % inhibition of virus production (relative to DMSO)) was found to be 7%. The inhibition at 0.016 µM in [4] (16 nM, H9-HIV, WB of virus pellets, read-out: % inhibition of virus production (relative to DMSO)) worked out at 7%. The inhibition at 0.049 µM in [4] (49 nM, H9-HIV, WB of virus pellets, read-out: % inhibition of virus production (relative to DMSO)) was determined as 31%. Besides, in series [4] (148 nM, H9-HIV, WB of virus pellets, read-out: % inhibition of virus production (relative to DMSO)), the inhibition at 0.148 µM is 48%. Also, the inhibition at 0.444 µM in [4] (444 nM, H9-HIV, WB of virus pellets, read-out: % inhibition of virus production (relative to DMSO)) turned out to be 86%. Also, the inhibition at 1.333 µM in [4] (1333 nM, H9-HIV, WB of virus pellets, read-out: % inhibition of virus production (relative to DMSO)) worked out at 92%. For the same compound, in series [4] (4000 nM, H9-HIV, WB of virus pellets, read-out: % inhibition of virus production (relative to DMSO)), the inhibition at 4 µM is 96%. Also, the inhibition at 10 µM in [4] (10000 nM, H9-HIV, WB of virus pellets, read-out: % inhibition of virus production (relative to DMSO)) worked out at 92%. Also, the CC50 in series [5] is 1000 nM; in series [6] (human) it was 1100 nM; in series [8], 1600 nM; in series [10] it was 1100 nM; in [11], 1100 nM. The “CC50 (μM)” value in series [6] is recorded as 1.4 ×/÷ 1.5 μM. Further, the “fold by which FIV EC50 is lower than CC50 in G355-5 cells” value in [7] (G355-5 cells) is recorded as under 2 fold. In [9] (48 h treatment), the “∼EC70 (treatment concentration)” value is on record as about 0.25 nM. Further, in [9] (48 h), the “steady-state levels of actin and GAPDH” value is “minimally affected”. Further, the “steady-state level of the ∼500S intermediate as a percentage of total Gag” value in series [9] (48 h, velocity sedimentation) was “dose-dependent decrease”. In [9] (protease-deficient provirus, 48 h), the “VLP release into the supernatant” value was “dose-dependent reduction”. Further, the “steady-state intracellular p55 Gag levels” value in series [9] (highest PAV-117 concentration tested, 48 h) is reported as “some reduction”.

In the case of `COc1cc(C)c(/C=C/C2NCCc3cc(OCc4ccccc4)c(OC)cc32)cc1OC` (stereo not drawn) [PAV-206], the EC50 in series [1] was determined as 34 nM; in series [14] (Human immunodeficiency virus 1, NL43, PBMC, PHA-activated PBMCs, HIV-1 NL4-3, MOI 0.008, 96 h), 75 nM. The “SI (CC50/EC50)” value in series [1] (MT-2 cells) worked out at 61. The compound further gave a CC50MT-2 in series [12] of 2811 nM. The same compound came in with a CC50PBMC in series [13] of 3.591 µM. In addition, the “CC50 (μM)” value in [6] worked out at 2.2 ×/÷ 1.4 μM. In series [14] (HIV-1-infected PBMCs), this compound registered a selectivity index of 48. Besides, the “resistance level reached: compound concentration allowing virus replication, fold higher than the EC50” value in series [15] amounted to 8 fold.
